Laboratory results as given in ChEMBL document CHEMBL3297669, “Suvanine sesterterpenes and deacyl irciniasulfonic acids from a tropical Coscinoderma sp. sponge” (J Nat Prod, 2014).
Values after ≈ are worked out from the molar mass of the structure shown.

How the values were obtained:
Pyricularia grisea = assay: Inhibition of Magnaporthe grisea Guy 11 isocitrate lyase
K562 = assay: Cytotoxicity against human K562 cells; format: functional; details: read-out: LC50 (the source's name)
Staphylococcus aureus = assay: Antimicrobial activity against Staphylococcus aureus ATCC 6538p after 24 hrs by two-fold broth dilution method; format: functional
[1] = Inhibition of sortase A (unknown origin)
Proteus hauseri = assay: Antimicrobial activity against Proteus hauseri NBRC 3851 after 24 hrs by two-fold broth dilution method; format: functional; details: NBRC 3851, 24 h
A549 = assay: Cytotoxicity against human A549 cells; format: functional; details: read-out: LC50 (the source's name)
Escherichia coli = assay: Antimicrobial activity against Escherichia coli ATCC 35270 after 24 hrs by two-fold broth dilution method; format: functional; details: ATCC 35270, 24 h
Bacillus spizizenii = assay: Antimicrobial activity against Bacillus subtilis ATCC 6633 after 24 hrs by two-fold broth dilution method; format: functional; details: ATCC 6633, 24 h
Salmonella enterica = assay: Antimicrobial activity against Salmonella enterica ATCC 14028 after 24 hrs by two-fold broth dilution method; format: functional; details: ATCC 14028, 24 h
Kocuria rhizophila = assay: Antimicrobial activity against Kocuria rhizophila NBRC 12708 after 24 hrs by two-fold broth dilution method; format: functional; details: NBRC 12708, 24 h

Structure (SMILES) | MIC (Pyricularia grisea) | CC50 (K562) | MIC (Staphylococcus aureus) | IC50 [1] | MIC (Proteus hauseri) | CC50 (A549) | MIC (Escherichia coli) | MIC (Bacillus spizizenii) | MIC (Salmonella enterica) | MIC (Kocuria rhizophila)
CC1(C)CCC[C@]2(C)[C@H]3CC/C(=C\OS(=O)(=O)[O-])[C@H](CCC4=CCN(CC(=O)O)C4=O)[C@@]3(C)CC[C@@H]12.[Na+] | 62 µg/mL | 1.3 µg/mL | > 100 µg/mL | > 100 µM | > 100 µg/mL | 1.4 µg/mL | > 100 µg/mL | > 100 µg/mL | > 100 µg/mL | > 100 µg/mL
C[C@@H]1O[C@@H](O[C@H]2C[C@@H](O)[C@]3(CO)[C@H]4[C@H](O)C[C@]5(C)[C@@H](C6=CC(=O)OC6)CC[C@]5(O)[C@@H]4CC[C@]3(O)C2)[C@H](O)[C@H](O)[C@H]1O [OUABAIN] |  |  |  | > 100 µM |  |  |  |  |  | 
CC1(C)CCC[C@]2(C)[C@H]3CC/C(=C\OS(=O)(=O)[O-])[C@H](CCc4ccoc4)[C@@]3(C)CC[C@@H]12.C[N+](C)=C(N)N | 51 µg/mL |  |  |  |  |  |  |  |  | 
CC(=O)CCCCC/C(C)=C\C(=O)NCCS(=O)(=O)O | > 100 µg/mL | > 100 µg/mL | > 100 µg/mL | > 100 µM | > 100 µg/mL | > 100 µg/mL | > 100 µg/mL | > 100 µg/mL | > 100 µg/mL | > 100 µg/mL
C[C@H](C(=O)O)N1CC=C(CC[C@H]2/C(=C/OS(=O)(=O)[O-])CC[C@H]3[C@]2(C)CC[C@H]2C(C)(C)CCC[C@]32C)C1=O.[Na+] | 48 µg/mL | 1.9 µg/mL | > 100 µg/mL | > 100 µM | > 100 µg/mL | 1.1 µg/mL | > 100 µg/mL | > 100 µg/mL | 50 µg/mL | > 100 µg/mL
CC1(C)S[C@@H]2[C@H](NC(=O)[C@H](N)c3ccccc3)C(=O)N2[C@H]1C(=O)O [AMPICILLIN] |  |  | 0.39 µg/mL (≈ 1.12 µM) | > 100 µM | 0.78 µg/mL (≈ 2.23 µM) |  | 3.12 µg/mL (≈ 8.93 µM) | 0.39 µg/mL (≈ 1.12 µM) | 0.39 µg/mL (≈ 1.12 µM) | 0.39 µg/mL (≈ 1.12 µM)
C/C(=C/C(=O)NCCS(=O)(=O)[O-])CCCCC[C@H](C)O.[Na+] | > 100 µg/mL | > 100 µg/mL | > 100 µg/mL | > 100 µM |  | > 100 µg/mL |  |  | > 100 µg/mL | 
C[S+]([O-])CCCN1CC=C(CC[C@H]2/C(=C/OS(=O)(=O)[O-])CC[C@H]3[C@]2(C)CC[C@H]2C(C)(C)CCC[C@]32C)C1=O.[Na+] (stereo not given in full) | 24 µg/mL | 3.9 µg/mL | > 100 µg/mL | > 100 µM |  | 5.5 µg/mL |  |  | 50 µg/mL | 
CC1(C)CCC[C@]2(C)[C@H]3CC/C(=C\OS(=O)(=O)[O-])[C@H](CCc4ccoc4)[C@@]3(C)CC[C@@H]12.CN(C)c1n(C)c(=O)c2c([n+]1C)N(C)CN2C [listing 1 of 2 here] |  | 2.2 µg/mL | 6.25 µg/mL | > 100 µM | 6.25 µg/mL | 1.9 µg/mL | > 100 µg/mL | 0.78 µg/mL | 0.78 µg/mL | 6.25 µg/mL
O=C(O)CC[N+](=O)[O-] | 2.5 µg/mL (≈ 21 µM) |  |  | > 100 µM |  |  |  |  |  | 
CC(C)[C@@H](C(=O)O)N1CC(CC[C@H]2/C(=C/OS(=O)(=O)[O-])CC[C@H]3[C@]2(C)CC[C@H]2C(C)(C)CCC[C@]32C)=CC1=O.[Na+] | 64 µg/mL | 3.9 µg/mL | > 100 µg/mL | > 100 µM | > 100 µg/mL | 1.9 µg/mL | > 100 µg/mL | > 100 µg/mL | 100 µg/mL | > 100 µg/mL
CC1(C)CCC[C@]2(C)[C@H]3CC/C(=C\OS(=O)(=O)[O-])[C@H](CCC4=CCN(CCS(=O)(=O)O)C4=O)[C@@]3(C)CC[C@@H]12.[Na+] | 90 µg/mL | 4.6 µg/mL | > 100 µg/mL | > 100 µM | > 100 µg/mL | 2 µg/mL | > 100 µg/mL | > 100 µg/mL | > 100 µg/mL | > 100 µg/mL
CC1(C)CCC[C@]2(C)[C@H]3CC/C(=C\OS(=O)(=O)[O-])[C@H](CCc4ccoc4)[C@@]3(C)CC[C@@H]12.CN(C)c1n(C)c(=O)c2c([n+]1C)N(C)CN2C [listing 2 of 2 here] | 28 µg/mL |  |  |  |  |  |  |  |  | 
COc1cccc2c1C(=O)c1c(O)c3c(c(O)c1C2=O)C[C@@](O)(C(=O)CO)C[C@@H]3O[C@H]1C[C@H](N)[C@H](O)[C@H](C)O1 [DOXORUBICIN] |  | 0.7 µg/mL (≈ 1.29 µM) |  | > 100 µM |  | 0.8 µg/mL (≈ 1.47 µM) |  |  |  | 
CC1(C)CCC[C@]2(C)[C@H]3CC/C(=C\OS(=O)(=O)[O-])[C@H](CCC4=CC(=O)N(CCS(=O)(=O)O)C4)[C@@]3(C)CC[C@@H]12.[Na+] | 50 µg/mL | 3.6 µg/mL | > 100 µg/mL | > 100 µM | > 100 µg/mL | 3.5 µg/mL | > 100 µg/mL | > 100 µg/mL | > 100 µg/mL | > 100 µg/mL
CC1(C)CCC[C@]2(C)[C@H]3CC/C(=C\OS(=O)(=O)[O-])[C@H](CCc4ccoc4)[C@@]3(C)CC[C@@H]12.C[N+](C)=C(N)N [SUVANINE] |  | 0.9 µg/mL | > 100 µg/mL | > 100 µM | 100 µg/mL | 1.7 µg/mL | > 100 µg/mL | 12.5 µg/mL | 25 µg/mL | > 100 µg/mL
